Measurements as given in article PMC6149664, “Synthesis and In Vitro Antimycobacterial Activity of Novel N-Arylpiperazines Containing an Ethane-1,2-diyl Connecting Chain” (Molecules : A Journal of Synthetic Chemistry and Natural …, 2017).
Read-outs that look alike come from different tables or passages of the source.

Legend:
[1] = format: physicochemical; set-up: key to RM (RP-TLC): RM = log(1/Rf - 1), from Rf in HCl/acetone mobile phase
Protocol: In the RP-TLC, silica gel plates impregnated by a hand with a variously concentrated silicone oil in heptane (a strong hydrophobic agent) were used as a non-polar stationary phase. Optimal differences in RM values within both homological groups 8a–d and 8e–h were observed if 1% silicone oil in heptane was chosen (Tables 1 and S1 in Supplementary Materials).
The RM values were calculated according to Equation (5) from the Rf parameters observed in a SM mobile phase: hydrochloric acid (c = 1.0 M)/acetone (4:1, v/v):RM = log (1/Rf – 1)(5)
For the experiments, aluminium sheets pre-coated with silica gel 60 F254 (0.25 mm thickness; Merck) were impregnated by a variously concentrated silicone oil in heptane, which ranged from 1% to 5%. The plates were separately spotted with 2 µL of methanolic solutions of each compound (c = 1 mg/mL), starting points were 1 cm from a bottom edge of these plates. The chromatographic plates were developed in glass developing chambers saturated for 30 min by the SM mobile phase. Development was carried out upon 15 cm from a starting line by an ascending technique. After being developed, the plates were dried at room temperature. Detection of zones was performed under iodine vapours/UV light at λ = 254 nm. Each experiment was run in triplicate at 21 °C, the RM values of analytes were calculated separately for each run.
Optimal differences in RM values within both homological groups 8a–d and 8e–h were observed if 1% silicone oil in heptane was chosen. The Rfs were found in a range from 0.19 (8h) to 0.78 (8a; Table 1). All the calculated average RM values were summarized in Table S1 (Supplementary Materials).

[2] = test system: M. avium CNCTC My 330/80 (identical with ATCC 25291); assay: In vitro antimycobacterial MIC, dilution-micromethod in Šula semisynthetic medium; format: cell-based; settings: Mycobacterium avium
[3] = test system: human monocytic leukemia THP-1 cell line; assay: In vitro cytotoxicity screening, LDH assay; settings: 24 h
[4] = silica gel plates impregnated with 3% silicone oil in heptane
[5] = silica gel plates impregnated with 5% silicone oil in heptane
[6] = ATCC25291, 336 h, 14 d cultivation, read-out: MIC, MA My 330/88
[7] = ATCC25291, 504 h, 21 d cultivation, read-out: MIC, MA My 330/88
[8] = ATCC25291, 336 h, 14-d/21-d, read-out: MIC against M. avium CNCTC My 330/80

SMILES | RM (RP-TLC) [1, 4] | RM (RP-TLC) [1, 5] | MIC [2, 6] [µM] | MIC [2, 7] [µM] | MIC [2, 8] [µM] | Effect on proliferation of the THP-1 cells compared to a control [3] | RM, lipophilicity index (RP-TLC) [1] | Relative survival rate of the THP-1 cells ([3]; highest tested concentration of 30 μM) [%]
CCOC(=O)Nc1cccc(C(O)CN2CCN(c3ccccc3F)CC2)c1.Cl (stereo not shown) [8b, 1-(2-{3-[(Ethoxycarbonyl)amino]phenyl}-2-hydroxyethyl)-4-(2-fluorophenyl)piperazin-1-ium chloride] | -0.03 | 0.11 | 250 | 250 |  |  |  | 
CCCOC(=O)Nc1cccc(C(O)CN2CCN(c3ccccc3F)CC2)c1.Cl (stereo not shown) [8c, 1-(2-Hydroxy-2-{3-[(propoxycarbonyl)amino]phenyl}ethyl)-4-(2-fluorophenyl)piperazin-1-ium chloride] | 0.42 | 0.44 | 125 | 250 |  |  |  | 
COC(=O)Nc1cccc(C(O)CN2CCN(c3ccccc3F)CC2)c1.Cl (stereo not shown) [8a, 1-(2-Hydroxy-2-{3-[(methoxycarbonyl)amino]phenyl}ethyl)-4-(2-fluorophenyl)piperazin-1-ium chloride] | -0.16 | -0.05 | 500 | 500 | 500 | increased proliferation |  | 
CCCOC(=O)Nc1ccc(C(O)CN2CCN(c3ccccc3F)CC2)cc1.Cl (stereo not shown) [8g, 1-(2-Hydroxy-2-{4-[(propoxycarbonyl)amino]phenyl}ethyl)-4-(2-fluorophenyl)piperazin-1-ium chloride] | 0.58 | 0.55 | > 250 | > 250 |  |  | 0.39 | 
CCCCOC(=O)Nc1cccc(C(O)CN2CCN(c3ccccc3F)CC2)c1.Cl (stereo not shown) [8d, 1-(2-{3-[(Butoxycarbonyl)amino]phenyl}-2-hydroxyethyl)-4-(2-fluorophenyl)piperazin-1-ium chloride] |  | 0.64 | 62.5 | 62.5 | 62.5 |  | 0.01 | 79
COC(=O)Nc1ccc(C(O)CN2CCN(c3ccccc3F)CC2)cc1.Cl (stereo not shown) [8e, 1-(2-Hydroxy-2-{4-[(methoxycarbonyl)amino]phenyl}ethyl)-4-(2-fluorophenyl)piperazin-1-ium chloride] | 0.19 | 0.25 | 250 | 500 |  | increased proliferation |  | 
CCOC(=O)Nc1ccc(C(O)CN2CCN(c3ccccc3F)CC2)cc1.Cl (stereo not shown) [8f, 1-(2-{4-[(Ethoxycarbonyl)amino]phenyl}-2-hydroxyethyl)-4-(2-fluorophenyl)piperazin-1-ium chloride] | 0.31 | 0.41 | > 250 | > 250 |  |  | 0.19 | 
CCCCOC(=O)Nc1ccc(C(O)CN2CCN(c3ccccc3F)CC2)cc1.Cl (stereo not shown) [8h, 1-(2-{4-[(Butoxycarbonyl)amino]phenyl}-2-hydroxyethyl)-4-(2-fluorophenyl)piperazin-1-ium chloride] | 0.83 | 0.83 | > 250 | 250 |  |  | 0.63 | 
